Source: article PMC10960464, “In vivo antimalarial effect of 1-hydroxy-5,6,7-trimethoxyxanthone isolated from Mammea siamensis T. Anders. flowers: pharmacokinetic and acute toxicity studies” (BMC Complementary Medicine and Therapies, 2024)
“And” between values parts separate entries of the source, which are not always exact repeats. Identical values can stand only once. “Also recorded” adds a separate entry of the source. Like-named read-outs stand apart in the source and are kept apart here.

Experiments:
[1] = cited from earlier work
[2] = tested on: Plasmodium berghei ANKA strain; assay: In vivo 4-day suppressive test of P. berghei in ICR mice; design: species or system Plasmodium berghei (in ICR mice); conditions: mean ± SEM, n = 5
Procedure: Wild-type P. berghei ANKA strain was obtained from Thomas F. McCutchan (BEI Resources, NIAID, NIH). P. berghei-infected red blood cells were administered intraperitoneally to donor mice. When parasitemia levels reached 20–30%, blood was collected from the heart using a cardiac puncture procedure and placed in a vacutainer heparinized tube for injection into experimental animals.
A 4-day suppressive test was used to measure the schizonticidal activity of HTX in P. berghei-infected ICR mice. This test was performed according to a previous method, with some modifications. All mice were intraperitoneally injected with 1 × 10^7P. berghei ANKA-parasitized erythrocytes. Treatment was initiated four hours after the mice were infected with Plasmodium parasite on the first day (D0). […] For each experimental group, animals received daily intraperitoneal doses of 1, 3, or 10 mg/kg body weight of HTX. Mice received each substance daily for 4 days (D0-D3). On the fifth day (D4), parasitemia was determined using Giemsa-stained thin blood smears prepared from the tails of each mouse. Mice were euthanized at the end of the experiment by intraperitoneal injection of pentobarbital (200 mg/kg body weight).
Finally, the percentage suppression of parasite growth was calculated using the following equation: [drawing 1]

non-infected ICR mice = assay: Acute toxicity test, single intraperitoneal dose, 14-day observation, liver and kidney biochemical parameters; format: in vivo
Procedure: (§1) Acute HTX toxicity was determined in non-infected ICR mice aged 6–8 weeks and weighing 25–35 g using the Organization for Economic Cooperation and Development standard criteria. Fifteen mice were randomly divided into three groups (n = 5): untreated, negative control, and HTX-treated. All mice fasted for three hours prior to the experiment, and only drinking water was available. HTX was dissolved in 2% DMSO in NSS at 50 mg/kg body weight. In the treatment group, the first mouse was intraperitoneally given a single dose of 50 mg/kg body weight HTX, whereas in the negative control group, the first mouse was intraperitoneally given 200 µL of 2% DMSO in NSS. […] All mice were anaesthetized using pentobarbital (60 mg/kg body weight) by intraperitoneal injection. Blood samples were collected via cardiac puncture into heparinized tubes for biochemical analyses. The liver and kidney tissues were collected for histological examination. The mice were subsequently euthanized with an intraperitoneal injection of pentobarbital (200 mg/kg body weight).

[3] = tested on: liver and kidney tissues of ICR mice; assay: Histopathological examination of liver and kidney tissues (H&E) in the acute toxicity test; format: in vivo; conditions: 50 mg/kg single intraperitoneal dose
Procedure: as §1
[…]. In brief, all tissues were fixed in 10% buffered formalin, dehydrated using a gradient series of ethanol solutions, cleaned with xylene, and deposited in a paraffin mold. The paraffin blocks were then sectioned to a thickness of 5 μm using a rotary microtome, transferred to glass slides, and stained with hematoxylin and eosin (H&E) solution. […]

[4] = In vivo pharmacokinetic study after intraperitoneal administration, plasma LC-MS/MS; conditions: 5 mg/kg intraperitoneal, ICR mice, n = 5
Procedure: A pharmacokinetic study was conducted in non-infected ICR mice aged 6–8 weeks and weighing 25–35 g. Male ICR mice were randomly divided into two groups, each consisting of five mice. The first group is a negative control group and was injected with 150 µL of 2% DMSO in NSS, whereas the second group is a test group that was administered 5 mg/kg body weight of HTX compound intraperitoneally. Blood ([…]) was taken from the tail vein prior to administration of test compounds (0 h) and after at, 0.5, 1, 2, 3, 5, 8, 24, 48, and 72 h. Blood samples were collected in microtubes containing ethylenediaminetetraacetic acid (EDTA) and kept on ice until they were centrifuged at 3,000 × g for 10 min at 4 °C to allow the collection of plasma, which was stored at − 80 °C.
LC-MS/MS (Agilent 1290 infinity LC and Agilent 6490 triple quadrupole mass spectrometer) with an electrospray ionization (ESI, Agilent Technologies, USA) source was used to detect HTX in the plasma. Using a VertiSepTM USP C18 column (4.6 mm × 150 mm, particle size = 5 μm; Vertical Chromatography Co., ltd., Nonthaburi, Thailand), the separation was achieved. Acetonitrile:1 mM formic acid (7:3) was used as the mobile phase and was maintained at a constant flow rate of 0.5 mL/min. The injection volume was 1 µL, and column temperature was maintained at 30 °C. The following operating conditions for the MS were optimized: the source temperature was kept at 200 °C, the ion spray voltage for the positive mode was set at 3 KV, and the collision energy for HTX was set at 43 V. Nitrogen was used as the collision gas. The nebulizer and sheath gas flow rates were set to 14 and 11 L/min, respectively. The MassHunter qualitative analysis software was used to acquire the data (Agilent Technologies, Inc. Headquarters, CA, USA). HTX was quantified using the transitions for HTX at m/z 303→199 in the multiple reaction monitoring (MRM) mode.
By dissolving precisely weighed HTX and reference compounds in acetonitrile, stock HTX solutions were prepared. By diluting the stock solutions using a mixture of acetonitrile and water (2:8, v/v), a series of working solutions with concentrations between 7.81 and 1000 ng/mL were prepared. All solutions were stored at 4 °C. By spiking the blank plasma (50 µL) with 25 µL of standard working solutions, HTX calibration standards (0.78, 1.56, 3.13, 6.25, 12.5, 25.0, 50, 125, and 250 ng/mL) were prepared. The extraction solvent ethyl acetate (0.5 mL) was added to 75 µL of HTX-spiked plasma. The sample was vortexed for 1 min, followed by ultrasonic vibration for 15 min. Then, centrifugation for 10 min at 15,000 × g was done. The upper organic layer was transferred to a new microtube and dried via evaporation. The dried extract was reconstituted in 150 µL of 50% (v/v) acetonitrile in water. HTX recovery experiments were performed to confirm extraction efficacy. The effectiveness of liquid-liquid extraction was then determined by comparing the peak regions of the extracted HTX-spiked plasma with those of HTX spiked with blank plasma extract.
The plasma concentration-time profiles of HTX were determined by non-compartmental analysis with PKSolver 2.0 software. […] Additionally, the apparent volume of the central or plasma compartment, apparent volume of the peripheral compartment, transfer rate constant from the central compartment to the peripheral compartment, and transfer rate constant from the peripheral to central compartment were calculated using the two-compartment model.

[5] = tested on: Plasmodium falciparum K1 strain; conditions: P. falciparum K1 strain (chloroquine-resistant), in vitro; read-out: IC50, antiplasmodial activity; cited from earlier work
[6] = tested on: P. falciparum chloroquine-resistant (FCR3) strain; conditions: cited from earlier work
[7] = 3 mg/kg intraperitoneal daily D0-D3, read on D4, P. berghei-infected ICR mice
[8] = 1 mg/kg intraperitoneal daily D0-D3, read on D4, P. berghei-infected ICR mice
[9] = 10 mg/kg intraperitoneal daily D0-D3, read on D4, P. berghei-infected ICR mice

## CC(C)(N)CNC(=O)C[C@H]1CC[C@]2(CC1)OO[C@]1(O2)C2CC3CC(C2)CC1C3 [arterolane]
[1]; in vivo
  elimination half-life: 2 to 4 h

## C[C@H]1[C@@H](O)O[C@@H]2O[C@@]3(C)CC[C@H]4[C@H](C)CC[C@@H]1[C@@]24OO3 [dihydroartemisinin]
[1]
  elimination half-life: 0.9 to 2 h

## C[C@H]1[C@H](OC(=O)CCC(=O)O)O[C@@H]2O[C@@]3(C)CC[C@H]4[C@H](C)CC[C@@H]1[C@@]24OO3 [Artesunate, reference compound]
[2]; [7]
  % parasitemia: 3.84 ± 0.54%
[1]; in vivo
  elimination half-life: 0.8 to 1.2 h

## COc1cc2c(=O)c3c(O)cccc3oc2c(OC)c1OC [HTX, 1-hydroxy-5,6,7-trimethoxyxanthone]
[2]; [8]
  % parasitemia: 21.91 ± 2.25%
  % suppression: 34.56% and 34.56 ± 4.91 ^a, b, d, e %
[2]; [7]
  % parasitemia: 17.79 ± 2.31%
  % suppression: 46.88% and 46.88 ± 3.96 ^a, b, c, e %
[2]; [9]
  % parasitemia: 8.62 ± 1.21%
  % suppression: 74.26% and 74.26 ± 3.32 ^a, b, c, d %
non-infected ICR mice; 50 mg/kg single intraperitoneal dose, 24 h and following 14 days
  mortality: No mortality; also recorded: all treated mice were alive; also recorded: did not cause mortality; also recorded: no behavioral changes or mortality
non-infected ICR mice; 50 mg/kg single intraperitoneal dose, versus untreated and negative controls
  effect on biochemical parameters of the liver and kidney functions: no significant alterations; also recorded: did not affect the liver and kidney functions
non-infected ICR mice; intraperitoneal, single dose, 14 days
  median lethal dose (LD50): greater than 50 mg/kg body weight
[3]
  kidney histology (H&E): no histological changes; also recorded: normal; also recorded: did not present with lesions
  liver histology (H&E): no histological changes; also recorded: normal hepatocyte histology
[4]; plasma
  CL/F: 0.020 ± 0.002 (mg/kg)/(ng/mL)/h
  MRT0−∞: 14.79 h and 14.795 ± 0.515 h
  Vz/F: 0.405 ± 0.014 (mg/kg)/(ng/mL)
  t1/2 (elimination half-life): 13.881 ± 1.231 h
[4]; two-compartment model
  K21 (rate constant, peripheral to central compartment): 0.156 ± 0.002 h⁻¹
  V1 (apparent volume, central or plasma compartment): 1.633 ± 0.003 (mg/kg)/(ng/mL)
  V2 (apparent volume, peripheral compartment): 19.808 ± 2.031 (mg/kg)/(ng/mL)
[4]; male, ICR, mouse, plasma, ip, 5 mg/kg, plasma, read-out: MRT0−∞
  MRT inf: 14.8 h
[4]; male, ICR, mouse, plasma, ip, 5 mg/kg, plasma, read-out: t1/2 (elimination half-life) (converted)
  half-life: 13.9 h
[4]; male, mouse, ip, plasma
  Cmax: 94 ± 3.21 ng/mL
  Tmax: 0.5 ± 0.021 h
[4]; male, mouse, ip, plasma, non-compartmental
  AUC(0-inf): 247 ± 5.33 ng·h/mL
[4]; male, mouse, ip, plasma, non-compartmental, read-out: AUC0 − 48 h
  AUC(0-t): 226 ± 4.74 ng·h/mL
[5]
  IC50: 9.57 µM

## COc1c(O)cc2oc3cc(O)c(CC=C(C)C)c(O)c3c(=O)c2c1CC=C(C)C [Α-Mangostin]
[6]
  IC50: 0.2 µM

## CCN(CC)CCCC(C)Nc1ccnc2cc(Cl)ccc12 (stereo not drawn) [Chloroquine, reference compound]
[2]; [7]
  % parasitemia: 3.42 ± 0.35%
  % suppression: 92.07 ± 4.21 ^c, d, e %
[2]; 3 mg/kg intraperitoneal daily D0-D3, read on D4, P. berghei-infected ICR mice, listed as chloroquine
  % suppression: 92.07%
